Assay results: EP0507188A1, “Substituted 2',3'-dideoxy-5-trifluoromethyluridines, method of their preparation and their use in medicaments” (BAYER AG, priority 1991, dated 1992)
Like-named read-outs stand apart in the source and are kept apart here.

Legend:
[1] = Water solubility (qualitative remark on the lyophilisate); format: physicochemical; conditions: lyophilisate of the sodium salt
Hepatitis B Virus (HBV) = assay: HBV test system in HBV-DNA-transfected hepatoma cells (HEP G2.2.15): HBV DNA in supernatant, HBsAg ELISA; format: cell-based; conditions: read-out: IC₅₀
Excerpt: Es wurde überraschend gefunden, daß die erfindungsgemäßen Verbindungen der allgemeinen Formel (I) eine außerordentlich starke spezifische Wirkung gegen das Heptatitis B Virus (HBV) besitzen. Der Nachweis wurde in mit Hepatitis B Virus DNA transfizierten Hepatomzellen (HEP G2.2.15) geführt.
Die Ergebnisse der unten aufgeführten Beispiele wurden zu dem in der folgenden Literaturangabe [Sells, M.A.; Chen, M.L., Acs, G., Proc. Natl. Acad. Sci. USA S. 1005 - 1009, Vol. 84 (1987)] beschriebenen HBV Testsystem ermittelt: Transfizierte Hepatomzellen (HEP G2.2.15) wurden mit verschiedenen Konzentrationen an der jeweiligen Verbindung inkubiert. Durch Behandlung der transfizierten Hepatomzellinie HEP G2.2.15 mit den erfindungsgemäßen Verbindungen konnte das […] der virusspezifischen HBV DNA im Überstand sowie eine Reduktion des HBsAg Spiegels gezeigt werden. Es wurde weiter gefunden, daß die erfindungsgemäßen Verbindungen zu einer Reduktion der replikativen Intermediate der Hepatitisviren führen. Im Überstand der Zellkulturen wurde nach PEG Fällung der Gehalt an HBV DNA bestimmt. Dies geschah unter Verwendung einer nicht radioaktiv markierten HBV genomischen DNA Probe [Pauly, P., 1982, P.H.D. Thesis, University of Göttingen, F.R.G.; Köchel et al., 1990, EMBL, Accession-Nr. X 51790]. Gleichzeitig erfolgte der Nachweis der Beeinflussung der HBsAg Bildung mittels eines kommerziell erhältlichen Elisa Tests. Die angegebenen IC₅₀-Werte beziehen sich auf die Substratkonzentrationen, die unter den oben aufgeführten Testbedingungen eine 50%ige Hemmung der HBV DNA Konzentration im Überstand bewirken.

HEL-Zellen = assay: Effect on vitality of other cells by incubation (HEL); format: cell-based; conditions: no influence on vitality up to this concentration
Protocol: (§1) Die Wirkung des Beispiels 2 auf andere Zellen wurde durch Inkubation von HEL-, MEF-Zellen getestet. Es zeigte sich keine Beeinflussung der Vitalität dieser Zellen bis zu einer Konzentration von 250 µM.

MEF-Zellen = assay: Effect on vitality of other cells by incubation (MEF); format: cell-based; conditions: no influence on vitality up to this concentration
Protocol: as §1

[2] = HEP G2.2.15 cells, concentration giving 50% inhibition of HBV DNA concentration in supernatant

## O=c1[nH]c(=O)n([C@H]2CC[C@@H](CO)O2)cc1C(F)(F)F.[Na] [Beispiel 12, β-2',3'-Didesoxy-5-(trifluormethyl)-uridin-natriumsalz]
[1]
  Wasserlöslichkeit: gut wasserlösliches

## Nc1ccn([C@H]2CC[C@@H](CO)O2)c(=O)n1 [DDC, 2',3'-Didesoxy-cytidin, reference compound]
Hepatitis B Virus (HBV); Hepatitis B virus, HepG2.2.15, reference substances in the same test system (HEP G2.2.15, HBV DNA in supernatant)
  IC50: 5000 nM

## O=c1[nH]c(=O)n([C@H]2CC[C@@H](CO)O2)cc1C(F)(F)F [Beispiel 2, β-2',3'-Didesoxy-5-(trifluormethyl)-uridin]
HEL-Zellen
  Beeinflussung der Vitalität dieser Zellen: > 250 µM
MEF-Zellen
  Beeinflussung der Vitalität dieser Zellen: > 250 µM
Hepatitis B Virus (HBV); [2]
  IC50: 0.01 nM

## Nc1ncnc2c1ncn2[C@H]1CC[C@@H](CO)O1 [DDA, reference compound]
Hepatitis B Virus (HBV); reference substances in the same test system (HEP G2.2.15, HBV DNA in supernatant)
  IC50: > 100000 nM

## β-5'-(1-Ethoxycarbonyloxy-eth-1-yl)-2',3'-didesoxy-5-(trifluormethyl)-uridin [Beispiel 5]
Hepatitis B Virus (HBV); [2]
  IC50: > 0.25 nM
